Test results taken from patent US8076116B2, “Nucleic acids encoding class II human histone deacetylases, and uses related thereto” (priority 2000, dated 2011).

Columns and labels:
[1] = tested on: HDAC5; type: cell-based, human; settings: TAg Jurkat cells treated 1.5 hours; for HDAC5 association with HDAC3 / binding of HDAC5 to either 14-3-3 isoform: Western blot; for HDAC activity of the purified HDAC5 complex: immunoprecipitate
Description: (§1) In addition, an increase in the overall HDAC activity of the purified complex was observed (FIG. 9A).
(§2) Cells were harvested 48 hours post-transfection. When required, cells were treated with 200 µM staurosporin (Calbiochem) or 20 nM calyculin A (Calbiochem) for 1.5 hours prior to harvesting.

[2] = tested on: HDAC4; type: cell-based, human; settings: TAg Jurkat cells treated 1.5 hours; for HDAC activity of the purified HDAC4 complex: immunoprecipitate
Description: as §1
HDAC4 (SEQ ID NO:2) also contains a nuclear localization sequence (Hicks and Raikhel, 1995). In order to determine if the interaction with 14-3-3 blocks binding of the importin heterodimer, recombinant FLAG-tagged HDAC4 (SEQ ID NO:2) was immunoprecipitated from untreated, staurosporine-, and calyculin A-treated TAg-Jurkat cells and analyzed for binding to importin □ by Western blotting.
as §2

[3] = target: T1, HDAC6 (Homo sapiens, UniProt Q9UBN7); assay: in vitro HDAC assay, release of 3H-acetate from labeled histones by immunoprecipitated FLAG-tagged HDAC6; type: biochemical; settings: 300 nM TSA, 10 minutes prior to addition of labeled histones
T1 construct: made in house; host or cells: Sf9 insect cells (baculovirus, pVL1392, Baculogold)
T1 sequence (Q9UBN7 1-1215 T994I): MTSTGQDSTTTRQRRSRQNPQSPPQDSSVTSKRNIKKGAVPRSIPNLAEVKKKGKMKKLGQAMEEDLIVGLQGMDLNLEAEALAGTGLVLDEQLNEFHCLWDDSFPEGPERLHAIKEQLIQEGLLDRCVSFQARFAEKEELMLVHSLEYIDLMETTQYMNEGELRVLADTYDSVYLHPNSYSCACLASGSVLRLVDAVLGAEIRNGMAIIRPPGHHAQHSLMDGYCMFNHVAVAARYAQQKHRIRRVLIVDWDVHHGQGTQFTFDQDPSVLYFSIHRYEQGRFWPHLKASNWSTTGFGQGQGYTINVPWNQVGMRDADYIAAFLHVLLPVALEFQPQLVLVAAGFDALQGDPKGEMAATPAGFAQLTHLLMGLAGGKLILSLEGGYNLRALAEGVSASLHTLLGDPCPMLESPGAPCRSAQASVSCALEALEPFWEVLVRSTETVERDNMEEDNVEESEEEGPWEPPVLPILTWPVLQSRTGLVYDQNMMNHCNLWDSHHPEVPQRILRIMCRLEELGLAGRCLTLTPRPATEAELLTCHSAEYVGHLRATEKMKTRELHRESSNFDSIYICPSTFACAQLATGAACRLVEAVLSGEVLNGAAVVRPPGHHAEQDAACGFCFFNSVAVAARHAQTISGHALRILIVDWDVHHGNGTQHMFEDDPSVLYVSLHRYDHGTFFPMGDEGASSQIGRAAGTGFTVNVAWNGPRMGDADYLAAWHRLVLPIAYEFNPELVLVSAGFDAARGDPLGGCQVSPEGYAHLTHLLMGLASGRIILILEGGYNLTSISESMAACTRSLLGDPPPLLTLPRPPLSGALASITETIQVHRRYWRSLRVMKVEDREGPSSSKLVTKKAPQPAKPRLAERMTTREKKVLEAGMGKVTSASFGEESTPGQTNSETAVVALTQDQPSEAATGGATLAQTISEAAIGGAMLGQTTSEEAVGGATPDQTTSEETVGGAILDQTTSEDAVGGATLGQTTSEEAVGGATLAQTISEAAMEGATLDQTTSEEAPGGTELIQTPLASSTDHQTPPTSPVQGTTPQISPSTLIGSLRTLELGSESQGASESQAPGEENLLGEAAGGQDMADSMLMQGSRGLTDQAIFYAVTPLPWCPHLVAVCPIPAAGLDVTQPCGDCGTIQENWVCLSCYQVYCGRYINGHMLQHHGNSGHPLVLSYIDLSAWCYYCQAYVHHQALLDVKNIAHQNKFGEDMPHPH
Description: (§3) C. In Vitro Histone Deacetylase Activity of Class II HDACs.
(§4) FLAG-tagged HDAC1 and HDAC6 were expressed in TAg Jurkat cells and purified by immunoprecipitation using the anti-FLAG antibody. […] The proteins were used in in vitro HDAC assays with the compounds identified in the screen, using concentration of approximately 50 μM.
(§5) E. Histone isolation and substrate specificity determination. […] F. HDAC6 Mutagenesis. […] G. Cell culture and transfections. […] Cells were harvested 48 hours post-transfection. H. DNA Constructs

[4] = target: HDAC4 (Homo sapiens, UniProt P56524); settings: 300 nM TSA, 10 minutes prior to addition of labeled histones
HDAC4 (Homo sapiens, UniProt P56524), sequence (P56524 whole entry A373T): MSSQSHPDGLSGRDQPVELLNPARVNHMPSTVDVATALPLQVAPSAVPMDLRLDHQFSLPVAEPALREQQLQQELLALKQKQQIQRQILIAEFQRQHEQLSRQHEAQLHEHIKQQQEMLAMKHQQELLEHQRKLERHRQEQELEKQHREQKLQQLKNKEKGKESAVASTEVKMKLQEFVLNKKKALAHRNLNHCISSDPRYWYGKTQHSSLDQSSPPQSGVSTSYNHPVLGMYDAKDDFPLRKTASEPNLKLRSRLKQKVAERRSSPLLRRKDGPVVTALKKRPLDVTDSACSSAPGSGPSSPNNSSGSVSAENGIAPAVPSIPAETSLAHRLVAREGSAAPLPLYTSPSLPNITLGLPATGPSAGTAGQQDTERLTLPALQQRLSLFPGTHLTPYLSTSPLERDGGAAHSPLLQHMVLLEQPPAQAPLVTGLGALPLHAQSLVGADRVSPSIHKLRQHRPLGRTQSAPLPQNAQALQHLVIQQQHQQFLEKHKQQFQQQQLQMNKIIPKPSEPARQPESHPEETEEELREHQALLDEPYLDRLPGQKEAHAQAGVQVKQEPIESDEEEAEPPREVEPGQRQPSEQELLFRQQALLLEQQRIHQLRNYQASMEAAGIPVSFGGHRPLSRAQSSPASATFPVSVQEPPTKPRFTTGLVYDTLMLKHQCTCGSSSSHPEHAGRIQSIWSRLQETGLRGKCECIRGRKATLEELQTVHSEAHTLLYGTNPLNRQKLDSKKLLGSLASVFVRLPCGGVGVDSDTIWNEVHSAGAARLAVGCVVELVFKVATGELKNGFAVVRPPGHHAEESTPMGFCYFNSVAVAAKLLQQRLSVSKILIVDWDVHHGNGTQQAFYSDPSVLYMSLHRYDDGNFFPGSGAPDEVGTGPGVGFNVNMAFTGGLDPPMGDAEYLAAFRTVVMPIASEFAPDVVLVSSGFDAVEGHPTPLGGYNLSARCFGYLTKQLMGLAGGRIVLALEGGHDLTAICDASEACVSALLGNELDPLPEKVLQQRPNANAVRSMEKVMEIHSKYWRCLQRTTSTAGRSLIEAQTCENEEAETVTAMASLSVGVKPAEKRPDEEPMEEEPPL
Description: (§6) The NCBI database was screened with the yeast Hda1p amino acid sequence to identify human homologs. The complete ORFs of HDAC 4 (SEQ ID NO:2), 5 (SEQ ID NO:4), and 6 (SEQ ID NO:6) were constructed as described in Methods. […] The two catalytic regions in HDAC6 (SEQ ID NO:6) are highly homologous to each other (47% identity, 64% similarity) and therefore the protein may have arisen evolutionarily from an in frame gene duplication event. […] C. In Vitro Histone Deacetylase Activity of Class II HDACs.

[5] = target: HDAC5 (Homo sapiens, UniProt Q9UQL6); settings: 300 nM TSA, 10 minutes prior to addition of labeled histones
HDAC5 (Homo sapiens, UniProt Q9UQL6), sequence (Q9UQL6 whole entry D593E): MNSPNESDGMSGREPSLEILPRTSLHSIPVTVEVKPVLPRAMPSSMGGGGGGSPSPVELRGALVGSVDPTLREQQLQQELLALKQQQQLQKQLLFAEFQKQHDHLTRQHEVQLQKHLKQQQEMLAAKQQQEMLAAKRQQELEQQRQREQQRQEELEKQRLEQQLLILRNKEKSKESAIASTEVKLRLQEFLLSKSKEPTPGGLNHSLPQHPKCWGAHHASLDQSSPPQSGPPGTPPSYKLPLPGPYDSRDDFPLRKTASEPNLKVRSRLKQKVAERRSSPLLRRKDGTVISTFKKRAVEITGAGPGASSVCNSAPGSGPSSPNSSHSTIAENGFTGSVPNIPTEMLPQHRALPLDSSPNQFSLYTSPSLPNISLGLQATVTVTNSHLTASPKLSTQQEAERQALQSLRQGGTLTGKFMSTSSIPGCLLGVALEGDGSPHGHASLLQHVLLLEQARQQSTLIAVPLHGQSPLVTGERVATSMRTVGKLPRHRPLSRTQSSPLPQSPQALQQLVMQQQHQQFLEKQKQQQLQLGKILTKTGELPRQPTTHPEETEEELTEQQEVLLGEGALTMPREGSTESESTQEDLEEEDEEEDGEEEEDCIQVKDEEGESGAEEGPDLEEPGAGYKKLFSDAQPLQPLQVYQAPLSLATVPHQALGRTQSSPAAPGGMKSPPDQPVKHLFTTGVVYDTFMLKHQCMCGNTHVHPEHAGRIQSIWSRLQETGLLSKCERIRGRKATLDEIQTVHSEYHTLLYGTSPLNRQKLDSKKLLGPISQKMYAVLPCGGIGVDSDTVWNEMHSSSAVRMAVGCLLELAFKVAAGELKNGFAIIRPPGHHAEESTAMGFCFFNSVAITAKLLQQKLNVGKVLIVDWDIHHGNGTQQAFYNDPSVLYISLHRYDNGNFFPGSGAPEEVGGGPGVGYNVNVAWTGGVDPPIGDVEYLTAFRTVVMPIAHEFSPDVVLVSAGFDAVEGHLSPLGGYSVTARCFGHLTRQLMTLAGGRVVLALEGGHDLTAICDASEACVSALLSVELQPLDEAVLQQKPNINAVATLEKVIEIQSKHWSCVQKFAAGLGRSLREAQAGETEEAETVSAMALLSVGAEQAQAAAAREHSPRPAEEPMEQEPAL
Description: as §6

[6] = target: T2, HDAC1 (Homo sapiens, UniProt Q13547); assay: in vitro HDAC assay, release of 3H-acetate from labeled histones by immunoprecipitated FLAG-tagged HDAC1; type: biochemical; settings: 300 nM TSA, 10 minutes prior to addition of labeled histones
T2 construct: made in house; host or cells: Sf9 insect cells (baculovirus, pVL1392)
T2 sequence (Q13547 whole entry): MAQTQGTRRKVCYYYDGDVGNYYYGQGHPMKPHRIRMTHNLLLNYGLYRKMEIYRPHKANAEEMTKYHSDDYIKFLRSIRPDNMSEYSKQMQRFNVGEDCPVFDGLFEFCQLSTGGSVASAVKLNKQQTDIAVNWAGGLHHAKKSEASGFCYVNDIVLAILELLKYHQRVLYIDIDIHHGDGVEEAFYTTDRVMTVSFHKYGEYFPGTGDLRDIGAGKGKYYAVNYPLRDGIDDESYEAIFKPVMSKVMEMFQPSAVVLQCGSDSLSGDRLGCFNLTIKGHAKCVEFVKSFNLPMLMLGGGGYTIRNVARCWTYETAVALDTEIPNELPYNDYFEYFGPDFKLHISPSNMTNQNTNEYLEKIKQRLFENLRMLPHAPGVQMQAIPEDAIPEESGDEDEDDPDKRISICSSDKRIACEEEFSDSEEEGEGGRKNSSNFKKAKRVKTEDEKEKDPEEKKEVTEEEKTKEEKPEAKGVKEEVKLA
Description: as §3, §4, §5

Row | SMILES | HDAC5 association with HDAC3 [1] | binding of HDAC5 to either 14-3-3 isoform [1] | HDAC activity of the purified HDAC5 complex [1] | HDAC4 association with HDAC3 ([2]; Western blot) | binding of HDAC4 to either 14-3-3 isoform ([2]; Western blot) | HDAC activity of the purified HDAC4 complex [2] | HDAC6 deacetylation activity in the presence of TSA [3] | HDAC4 deacetylation activity in the presence of TSA [4] | HDAC5 deacetylation activity in the presence of TSA [5] | HDAC1 deacetylation activity in the presence of TSA [6] | HDAC4 association with importin α ([2]; Western blot)
1 | CN[C@@H]1C[C@H]2O[C@@](C)([C@@H]1OC)n1c3ccccc3c3c4c(c5c6ccccc6n2c5c31)C(=O)NC4 [staurosporine] | increase | decrease | increase | increase | decrease | increase | – | – | – | – | –
2 | CC(/C=C/C(=O)NO)=C\[C@@H](C)C(=O)c1ccc(N(C)C)cc1 [TSA, trichostatin A] | – | – | – | – | – | – | greatly reduced | greatly reduced | greatly reduced | greatly reduced | –
3 | COC[C@@H]([C@H](O)[C@H](O)C(=O)NCC[C@H](C)c1nc(/C=C/C[C@@H]2O[C@]3(C[C@@H](O)[C@@H]2C)O[C@H]([C@H](C[C@H](O)[C@H](C)[C@H](O)[C@H](C)/C=C(C)/C(C)=C/C=C/C(C)=C\C#N)OC)[C@H](OP(=O)(O)O)C3(C)C)co1)N(C)C [calyculin A] | loss of interaction | increase | dramatic reduction | loss of interaction | increase | dramatic reduction | – | – | – | – | fails to associate
